Data reported in patent US20250268848A1, “COMPOSITIONS COMPRISING ENDOSIDIN 2 FOR REDUCING SARS-COV-2 INFECTION” (HENRY FORD HEALTH SYSTEM, priority 2021, published 2025).

Columns and labels:
Hela cells = settings: cited from earlier work
[1] = tested on: ACE2 translocation to the cell surface of CD14+ monocytes; assay: Flow cytometry of ACE2 surface expression in PBMCs pre-treated with ES2 before R848 or LPS; assay type: cell-based, human; settings: PBMCs pre-treated with ES2 1-2 h, then R848 or LPS 4 h
Procedure: Bars represent mean±SEM of biologically independent samples, (n=3/group for 40 μM ES2 condition; n=4/group for all other conditions).
For ex vivo stimulation assays analyzed by flow cytometry, fresh PBMCs were isolated from CPT tubes using a standard protocol. Briefly, whole blood cells were diluted with Ca^2+-free and Mg^2+-free PBS buffer (Corning, NY) containing 2% fetal bovine serum (FBS, R&D Systems, Minneapolis, MN) and 2 mM EDTA (VWR Life Science, Radnor, PA) and slowly overlaid onto Ficoll-Paque™ (GE healthcare, Chicago, IL) at 2:1 ratio by volume. The samples were centrifuged at RT for 20 min at 800×g with no braking. Next, the mononuclear cell layer at the plasma-Ficoll interface was moved into a new 50 ml tube and washed with PBS buffer and red blood cell lysis buffer at RT for 5 min. The isolated PBMCs were used on the day of isolation or placed at −80° C. for storage. Two million fresh or thawed PBMCs were transferred to each well of a round-bottom 96-well culture plate (Thermo Fisher Scientific) in 200 μL of RPMI medium containing 10% FBS. The thawed PBMCs were recovered for 2 h at 37° C. with 5% C02. […]
Flow cytometry methods. […] All data were analyzed using FlowJo 10.5.3 (BO Biosciences). […]

PBMCs = assay: Flow cytometry of ACE2 and TMPRSS2 cell surface expression in PBMCs stimulated ex vivo; assay type: cell-based, human; settings: mean±SEM
Procedure: Mouse IgG1 antibodies were used as the isotype controls.
PBMCs were ex vivo cultured with R848, LPS or medium alone for 4 hrs, 24 hrs, and 48 hrs. Representative flow cytometric analysis of surface expression of ACE2 and TMPRSS2 in cDC.
PBMCs were ex vivo cultured with PMA plus ionomycin for 4 h. Representative flow cytometric analysis of surface expression of TMPRSS2 in CD4+, CD8+ and total T cells.
For ex vivo stimulation assays analyzed by flow cytometry, fresh PBMCs were isolated from CPT tubes using a standard protocol. Briefly, whole blood cells were diluted with Ca^2+-free and Mg^2+-free PBS buffer (Corning, NY) containing 2% fetal bovine serum (FBS, R&D Systems, Minneapolis, MN) and 2 mM EDTA (VWR Life Science, Radnor, PA) and slowly overlaid onto Ficoll-Paque™ (GE healthcare, Chicago, IL) at 2:1 ratio by volume. The samples were centrifuged at RT for 20 min at 800×g with no braking. Next, the mononuclear cell layer at the plasma-Ficoll interface was moved into a new 50 ml tube and washed with PBS buffer and red blood cell lysis buffer at RT for 5 min. The isolated PBMCs were used on the day of isolation or placed at −80° C. for storage. Two million fresh or thawed PBMCs were transferred to each well of a round-bottom 96-well culture plate (Thermo Fisher Scientific) in 200 μL of RPMI medium containing 10% FBS. The thawed PBMCs were recovered for 2 h at 37° C. with 5% C02. In some experiments, PBMCs were treated with different concentrations of ES2 (Sigma Aldrich) or 0.25% DMSO (the vehicle for ES2 at the highest concentration; ATCC, Manassas, VA) for 1-2 h during recovery stage. The fresh and recovered cells were then cultured with 1 μg/ml R848, LPS, or medium alone for 4 h. For TCR-independent T cell stimulation, PBMCs were cultured in RPMI medium containing 10% FBS in the presence of phorbol 12-myristate 13-acetate (PMA) (50 ng/ml) and ionomycin (1 μM) for a total of 4 h at 37° C. After incubation, the cells were washed with wash buffer in PBS containing 2% FBS and 1 mM EDTA prior to staining.
Flow cytometry methods. Single-cell suspensions were centrifuged at 450×g for 7 min, resuspended in ice-cold staining buffer (1×PBS with 2% FBS), and placed in a 96-well round-bottom plate (Thermo Fisher Scientific). After incubation with human Fe receptor blocking solution (Biolegend, San Diego, CA) at 4° C. for 15 min, cells were stained with a mixture of fluorescent surface antibodies at 4° C. for 30 min. For intracellular staining, the cells were fixed with IC Fixation Buffer (eBiosciences™, Thermo Fisher Scientific) at 4° C. for 30 min followed by incubation with fluorescent intracellular antibody cocktail in 1× Intracellular Fixation & Permeabilization Buffer (eBiosciences™, Thermo Fisher Scientific) at 4° C. for 30 min. The full list of fluorescent antibodies used is in Table 1 below. DAPI was added to the unfixed cells with surface staining at a final concentration of 1 μg/ml immediately before sample acquisition. The stained samples were then acquired on a FACSCelesta™ flow cytometer (BO Biosciences) using BO FACSDiva software version 8.0.2 (BO Biosciences). All data were analyzed using FlowJo 10.5.3 (BO Biosciences).
Methods. Flow cytometry and qRT-PCR were utilized as described in Example 1.

blood myeloid cells = assay: Mass cytometry (CyTOF) of surface ACE2 in whole blood myeloid cells stimulated ex vivo with R848; assay type: cell-based, human; settings: 4 h ex vivo, COVID-19 patients and healthy controls, mean±SEM

Compound | recycling of endocytosed transferrin to the plasma membrane (Hela cells) | rapid translocation of ACE2 to the monocyte cell surface [1] | ACE2+ TMPRSS2+ cDCs (PBMCs) | cell surface ACE2 localization in cDCs (PBMCs) | surface expression of TMPRSS2 in cDCs (PBMCs) | surface expression of ACE2 in CD14+ classic monocytes (blood myeloid cells) [%]
COc1cc(/C=N/NC(=O)c2cccc(F)c2)cc(I)c1O [ES2, 3-fluoro-benzoic acid, (2E)-2-[(4-hydroxy-3-iodo-5-methoxyphenyl)methylene]hydrazide] | inhibits | blocked |  |  |  | 
CCOCc1nc2c(N)nc3ccccc3c2n1CC(C)(C)O [R848, resiquimod] |  |  | 1.1%±0.21 | 8.9%±0.98 | 3.2%±0.87 | 11.0±2.7
lipopolysaccharide [LPS] |  |  | 1.1%±0.21 | 8.9%±0.98 | 3.2%±0.87 | 
